In US20230277632A1, “MODIFIED PlySs2 LYSINS AND ANTIBIOTIC COMBINATIONS FOR USE AGAINST GRAM-POSITIVE BACTERIA” (ContraFect Corporation, priority 2020, published 2023):
≈ marks a conversion by molar mass, not a printed value. Where “and” joins values, the source holds several entries; their conditions need not be identical. Identical values can stand only once.

How the values were obtained:
S. aureus isolates [1] = test: MIC determination (broth microdilution) against 8 S. aureus isolates; type: cell-based; details: CAMHB Ca^2+, unit assumed
Protocol: Suitable methods for assessing the activity of a modified lysin polypeptide as disclosed herein are well known in the art and described in the examples. […] For example, MIC values for a modified lysin polypeptide may be determined against e.g., laboratory Staphylococcus aureus strains, in e.g., Mueller-Hinton broth or Mueller-Hinton broth supplemented with serum, such as horse serum.
The pp296 MICs were determined based on (1) cation-adjusted Mueller-Hinton Broth with 25% horse serum and 0.5 mM DTT (caMHB-HSD); (2) human serum (100% serum); and (3) ICR mice (100% serum). Vancomycin and daptomycin MICs of the isolate strains were determined in accordance with the broth microdilution method as outlined by CLSI. Results of the MIC determination are shown below in Table 2. The bacterial isolates were frozen at −80° C. in skim milk.

S. aureus isolates [2] = test: In vivo efficacy of daptomycin in combination with pp296, neutropenic murine thigh infection model; details: 24 h; for Replicate Log10 CFU/thigh data: daptomycin alone
Protocol: Study animals: Specific pathogen-free female ICR mice (average body weight 23 grams) were provided food and water ad libitum and maintained and used in accordance with National Research Council recommendations. Animals were allowed a 48-hour post-delivery acclimation period before every experiment. Mice were rendered transiently neutropenic by injection of cyclophosphamide via intraperitoneal (IP) route at a dose of 150 mg/kg of body weight at four days before bacterial inoculation and 100 mg/kg of body weight at one day before bacterial inoculation.
Neutropenic Thigh Infection Model: Two transfers of the bacterial isolates were performed onto trypticase soy agar plates with 5% sheep blood and placed into an incubator at 37° C. for approximately 24 hours. After an 18-24 hour incubation of the second transfer, a suspension of approximately 10^7 CFU/mL was made for inoculation. Final bacterial inoculum concentrations were confirmed by serial dilution and plating techniques. Thigh infection with the test isolate was produced by intramuscular injection of 0.1 mL of the bacterial inoculum into each thigh of the mice. Antimicrobial therapy was initiated 2 hours after bacterial inoculation, as detailed below.
Untreated control mice (n=3) were sacrificed just prior to antibiotic administration and 24 hours after bacterial inoculation. Animals sacrificed prior to antibiotic initiation served as 0-hour control animals, representing initial bacterial burden. […] Treatment mice (n=3/group) were sacrificed at the end of the 24 hour treatment period. After sacrifice, both thighs for each mouse were homogenized in normal saline. Serial dilutions were plated on Trypticase soy agar with 5% sheep blood and incubated for 18 to 20 hours at 37.0 to determine the CFU. Efficacy was calculated as the change in bacterial density obtained in treated mice after 24 hours compared with the numbers in the 0-hour control animals. Bacterial density represents the average CFU determined from 3 mice, each contributing 2 thighs.
For the 4 S. aureus isolates HPV107, CAIRD426, JMI227, and NRS123, the following sub-therapeutic daptomycin dosage regimen was adopted: 0.76 mg/kg at 0 hrs, 0.4 mg/kg at 4 hrs, 0.24 mg/kg at 10 hrs, and 0.12 mg/kg at 17 hrs.

S. aureus = test: pp296 dose fractionation study, neutropenic murine thigh infection model; type: in vivo; details: sub-therapeutic daptomycin SC alone, 24 h
Protocol: Each of the pp296 TDDs was fractionated into three regimens, i.e., one-third of the entire dose was administered via IV three times (q8h); one-half of the entire does was administered via IV two times (q12h), or the entire dose was administered via IV once daily over a 24-hour period, for a total of three groups per each TDD.
Untreated control mice (n=3/group) were sacrificed just prior to antibiotic administration, as well as 24 hours later. Animals sacrificed prior to antibiotic administration served as 0-hour control animals, representing initial bacterial burden. The 24-hour control animals received sterile normal saline in the same volume and schedule as the most frequent active drug regimen. […] After the 24-hour treatment period, all animals were euthanized and thighs were cultured quantitatively as described above. The change in bacterial density was calculated for each of the dosing regimen. Comparisons were made between the different regimens of the same total daily dose on bacterial burdens at 24 hours using one-way Analysis of Variance (ANOVA) test followed by Tukey's test where the P value was 0.05.

`CCCCCCCCCC(=O)N[C@@H](Cc1c[nH]c2ccccc12)C(=O)N[C@H](CC(N)=O)C(=O)N[C@@H](CC(=O)O)C(=O)N[C@@H]1C(=O)NCC(=O)N[C@@H](CCCN)C(=O)N[C@@H](CC(=O)O)C(=O)N[C@H](C)C(=O)N[C@@H](CC(=O)O)C(=O)NCC(=O)N[C@H](CO)C(=O)N[C@@H]([C@H](C)CC(=O)O)C(=O)N[C@@H](CC(=O)c2ccccc2N)C(=O)O[C@@H]1C` [Daptomycin, daptomycin] gave an MIC Daptomycin (CAMHB Ca^2+) (S. aureus isolates [1]; ATCC 29213 MSSA) of 1 µg/mL (≈ 0.617 µM), an MIC Daptomycin (CAMHB Ca^2+) (S. aureus isolates [1]; CAIRD426 MRSA) of 1 µg/mL (≈ 0.617 µM) and an MIC Daptomycin (CAMHB Ca^2+) (S. aureus isolates [1]; HPV107 MRSA) of 0.5 µg/mL (≈ 0.309 µM). It also gave an MIC Daptomycin (CAMHB Ca^2+) (S. aureus isolates [1]; JMI227 MRSA) of 0.5 µg/mL (≈ 0.309 µM), an MIC Daptomycin (CAMHB Ca^2+) (S. aureus isolates [1]; JMI4789 MRSA) of 1 µg/mL (≈ 0.617 µM) and an MIC Daptomycin (CAMHB Ca^2+) (S. aureus isolates [1]; NRS100 (COL) MRSA) of 0.5 µg/mL (≈ 0.309 µM). The MIC Daptomycin (CAMHB Ca^2+) (S. aureus isolates [1]; NRS123 (MW2) MRSA) was 1 µg/mL (≈ 0.617 µM), the MIC Daptomycin (CAMHB Ca^2+) (S. aureus isolates [1]; NRS271 MRSA/LRSA) was 0.5 µg/mL (≈ 0.309 µM) and the “Replicate Log10 CFU/thigh data” value (S. aureus isolates [2]; isolate ATCC2921, 0.475/0.25/0.15/0.075 mg/kg at 0/4/10/17 hrs) was 8.02 Log10 CFU/thigh and 8.04 Log10 CFU/thigh and 7.79 Log10 CFU/thigh and 8.03 Log10 CFU/thigh and 6.18 Log10 CFU/thigh and 7.38 Log10 CFU/thigh. For the same compound, the “Replicate Log10 CFU/thigh data” value (S. aureus isolates [2]; isolate CAIRD426, 0.76/0.4/0.24/0.12 mg/kg at 0/4/10/17 hrs) was 8.16 Log10 CFU/thigh and 8.20 Log10 CFU/thigh and 7.59 Log10 CFU/thigh and 8.18 Log10 CFU/thigh and 7.47 Log10 CFU/thigh and 7.35 Log10 CFU/thigh, the “Replicate Log10 CFU/thigh data” value (S. aureus isolates [2]; isolate HPV107, 0.76/0.4/0.24/0.12 mg/kg at 0/4/10/17 hrs) was 7.16 Log10 CFU/thigh and 7.34 Log10 CFU/thigh and 7.24 Log10 CFU/thigh and 7.08 Log10 CFU/thigh and 6.74 Log10 CFU/thigh and 5.77 Log10 CFU/thigh and the “Replicate Log10 CFU/thigh data” value (S. aureus isolates [2]; isolate JMI227, 0.76/0.4/0.24/0.12 mg/kg at 0/4/10/17 hrs) was 5.93 Log10 CFU/thigh and 6.08 Log10 CFU/thigh and 6.48 Log10 CFU/thigh and 6.73 Log10 CFU/thigh and 6.86 Log10 CFU/thigh and 6.89 Log10 CFU/thigh. The “Replicate Log10 CFU/thigh data” value (S. aureus isolates [2]; isolate JMI4789, 0.475/0.25/0.15/0.075 mg/kg at 0/4/10/17 hrs) was 8.00 Log10 CFU/thigh and 6.85 Log10 CFU/thigh and 8.63 Log10 CFU/thigh and 8.52 Log10 CFU/thigh and 8.14 Log10 CFU/thigh and 7.21 Log10 CFU/thigh, the “Replicate Log10 CFU/thigh data” value (S. aureus isolates [2]; isolate NRS100, 0.475/0.25/0.15/0.075 mg/kg at 0/4/10/17 hrs) was 4.83 Log10 CFU/thigh and 5.29 Log10 CFU/thigh and 6.67 Log10 CFU/thigh and 7.76 Log10 CFU/thigh and 6.20 Log10 CFU/thigh and 7.09 Log10 CFU/thigh and the “Replicate Log10 CFU/thigh data” value (S. aureus isolates [2]; isolate NRS123, 0.76/0.4/0.24/0.12 mg/kg at 0/4/10/17 hrs) was 6.73 Log10 CFU/thigh and 7.28 Log10 CFU/thigh and 6.86 Log10 CFU/thigh and 7.09 Log10 CFU/thigh and 5.81 Log10 CFU/thigh and 6.81 Log10 CFU/thigh. The “Replicate Log10 CFU/thigh data” value (S. aureus isolates [2]; isolate NRS217, 0.475/0.25/0.15/0.075 mg/kg at 0/4/10/17 hrs) was 7.94 Log10 CFU/thigh and 7.84 Log10 CFU/thigh and 7.89 Log10 CFU/thigh and 7.92 Log10 CFU/thigh and 8.01 Log10 CFU/thigh and 8.02 Log10 CFU/thigh, the “average bacterial growth vs starting inoculum” value (S. aureus isolates [2]; sub-therapeutic daptomycin alone, 8 isolates) was 1.47±0.80 log10 CFU/thigh and the “bacterial burden vs 0-hour control mice” value (S. aureus) was 0.82±0.44 log10 CFU/thigh.
